Measured values reported in US20220395472A1 (Dermavant Sciences GmbH, priority 2021, published 2022).
Like-named read-outs stand apart in the source and are kept apart here.

What was measured:
[1] = tested on: adults with plaque psoriasis; test: Long-term extension study (PSOARING 3): PASI score, PASI75, PASI90; assay type: in vivo, human
Source text: The PASI scoring system is a widely used, standard, clinical tool for assessing the severity of psoriasis that takes into account the overall severity of erythema (redness), induration (plaque thickness), scale, and the extent of % BSA affected with psoriasis. The 3 clinical signs are each graded on a 5 point scale (0 to 4) and the % BSA affected is scored on a 7 point scale (0 to 6) for each of the 4 specified body regions (head, upper extremities, trunk, and lower extremities). Individual scores are multiplied by a weighted factor for each body region; the sum of these scores gives the overall PASI score. Higher scores indicate more severe disease. PASI is a static assessment made without reference to previous scores. Details on PASI calculation can be found in Appendix 2 of the protocol.

[2] = tested on: adults with plaque psoriasis; test: Long-term extension study (PSOARING 3): adverse events; assay type: in vivo, human
Source text: Endpoints: Incidence, frequency, and nature of AEs, adverse events of special interest (AESIs), and serious adverse events (SAEs), Change over time in clinical laboratory tests and frequency of clinically significant abnormal test results, Change over time in vital signs and frequency of clinically significant abnormal results, Local Tolerability Scale (LTS) scores by severity summarized by visit.
Safety assessments included AEs, AESIs, SAEs, local (application site) tolerability, clinical laboratory tests, vital signs, physical examinations, and Investigator assessed LTS. Efficacy assessments included a 5 point static PGA (0 [clear], 1 [almost clear], 2 [mild], 3 [moderate], 4 [severe]), % BSA affected, the PASI, and subject reported DLQI.

plaque psoriasis = test: 12-week phase 2b trial in psoriasis; assay type: in vivo, human; settings: cream 1%; 12-week treatment
Source text: As mentioned, tapinarof is a novel therapeutic aryl hydrocarbon receptor modulating agent (TAMA) in clinical development for the topical treatment of psoriasis and atopic dermatitis. […] AhR modulates T cell responses both through intrinsic control of T cell subset differentiation and via controlling the function of antigen presenting cells. In addition, AhR signaling promotes the conversion of Th17 cells to type 1 regulatory T cells. Aberrant immune responses underpin the pathogenesis of both PsO and AD, and the wide expression of AhR in immune cells makes it an attractive target given the essential role of AhR in regulating inflammatory responses and skin homeostasis. […] These clinical data support the role of AhR in skin immune homeostasis. Given the multitude of AhR-dependent immunoregulatory mechanisms, AhR is an attractive target for novel immunotherapies with the potential to extend therapeutic efficacy following treatment discontinuation; this may provide a unique clinical benefit to patients.
Treatment-emergent adverse events (TEAEs) were reported with a higher frequency in the tapinarof groups than in the vehicle groups. […]

[3] = tested on: adult and adolescent subjects with AD; settings: cited from earlier work
[4] = In vitro studies in human skin microsomes: metabolic turnover; assay type: in vitro ADME
Source text: The reason for the decrease in plasma concentrations over time is unknown. Without wishing to be bound by theory, as the skin heals, there may be less penetration of the drug through the stratum corneum and into the systemic circulation since the barrier is restored.

[5] = Week 16, LOCF, Tapinarof (Pivotal) group
[6] = Week 16, LOCF, Vehicle (Pivotal) group
[7] = Week 16, OC, Tapinarof (Pivotal) group
[8] = Week 16, OC, Vehicle (Pivotal) group
[9] = Week 16, Observed Cases, Overall
[10] = Week 16, Observed Cases, Tapinarof (Pivotal) group
[11] = Week 16, Observed Cases, Vehicle (Pivotal) group
[12] = Week 40, LOCF, Tapinarof (Pivotal) group
[13] = Week 40, LOCF, Vehicle (Pivotal) group
[14] = Week 40, OC, Tapinarof (Pivotal) group
[15] = Week 40, OC, Vehicle (Pivotal) group
[16] = Week 40, Observed Cases, Tapinarof (Pivotal) group
[17] = Week 40, Observed Cases, Vehicle (Pivotal) group
[18] = final analysis, Tapinarof→Tapinarof
[19] = final analysis, Vehicle→Tapinarof

CC(C)c1c(O)cc(/C=C/c2ccccc2)cc1O [Tapinarof, 3,5-Dihydroxy-4-isopropyl-trans-stilbene]
PASI75 Responder ([1]; Week 16, LOCF, Overall, listed as tapinarof): 21.3%
PASI75 Non-Responder [1, 5]: 413/491 (84.1) %
PASI75 Responder [1, 5]: 78/491 (15.9) %
Subjects with reduction of ≥90% from Baseline in PASI (PASI90) [1, 5]: 13.0%
mean (SD) PASI score [1, 5]: 2.74 (3.324)
PASI75 Responder ([1]; Week 16, LOCF, Tapinarof (Pivotal) group, listed as tapinarof): 15.9%
PASI75 Non-Responder [1, 6]: 170/250 (68.0) %
PASI75 Responder [1, 6]: 80/250 (32.0) %
Subjects with reduction of ≥90% from Baseline in PASI (PASI90) [1, 6]: 15.2%
mean (SD) PASI score [1, 6]: 3.47 (3.794)
PASI75 Responder ([1]; Week 16, LOCF, Vehicle (Pivotal) group, listed as tapinarof): 32.0%
Subjects with reduction of ≥90% from Baseline in PASI (PASI90) [1, 7]: 13.6%
mean (SD) PASI score [1, 7]: 2.38 (2.652)
Subjects with reduction of ≥90% from Baseline in PASI (PASI90) [1, 8]: 15.9%
mean (SD) PASI score [1, 8]: 2.95 (3.020)
PASI75 Non-Responder [1, 9]: 478/619 (77.2) %
PASI75 Responder [1, 9]: 141/619 (22.8) %
PASI75 Responder ([1]; Week 16, Observed Cases, Overall, listed as tapinarof): 22.8%
PASI75 Non-Responder [1, 10]: 342/412 (83.0) %
PASI75 Responder [1, 10]: 70/412 (17.0) %
PASI75 Responder ([1]; Week 16, Observed Cases, Tapinarof (Pivotal) group, listed as tapinarof): 17.0%
PASI75 Non-Responder [1, 11]: 136/207 (65.7) %
PASI75 Responder [1, 11]: 71/207 (34.3) %
PASI75 Responder ([1]; Week 16, Observed Cases, Vehicle (Pivotal) group, listed as tapinarof): 34.3%
PASI75 Non-Responder ([1]; Week 16 LOCF, Overall): 583/741 (78.7) %
PASI75 Responder ([1]; Week 16 LOCF, Overall): 158/741 (21.3) %
Subjects with reduction of ≥90% from Baseline in PASI (PASI90) ([1]; Week 16 LOCF, Overall): 13.8%
mean (SD) PASI score ([1]; Week 16 LOCF, Overall): 2.99 (3.504)
Subjects with reduction of ≥90% from Baseline in PASI (PASI90) ([1]; Week 16 OC, Overall): 14.4%
mean (SD) PASI score ([1]; Week 16 OC, Overall): 2.57 (2.791)
PASI75 Responder ([1]; Week 40, LOCF, Overall, listed as tapinarof): 25.3%
PASI75 Non-Responder [1, 12]: 409/492 (83.1) %
Subjects with reduction of ≥90% from Baseline in PASI (PASI90) [1, 12]: 11.2%
mean (SD) PASI score [1, 12]: 2.80 (3.443)
PASI75 Responder ([1]; Week 40, LOCF, Tapinarof (Pivotal) group, listed as tapinarof): 16.9%
PASI75 Non-Responder [1, 13]: 146/251 (58.2) %
PASI75 Responder [1, 13]: 105/251 (41.8) %
Subjects with reduction of ≥90% from Baseline in PASI (PASI90) [1, 13]: 20.7%
mean (SD) PASI score [1, 13]: 3.28 (3.937)
PASI75 Responder ([1]; Week 40, LOCF, Vehicle (Pivotal) group, listed as tapinarof): 41.8%
Subjects with reduction of ≥90% from Baseline in PASI (PASI90) [1, 14]: 13.1%
mean (SD) PASI score [1, 14]: 2.38 (2.672)
Subjects with reduction of ≥90% from Baseline in PASI (PASI90) [1, 15]: 27.4%
mean (SD) PASI score [1, 15]: 2.31 (3.008)
PASI75 Responder ([1]; Week 40, Observed Cases, Overall): 30.9%
PASI75 Non-Responder [1, 16]: 186/236 (78.8) %
PASI75 Responder [1, 16]: 50/236 (21.2) %
PASI75 Responder ([1]; Week 40, Observed Cases, Tapinarof (Pivotal) group, listed as tapinarof): 21.2%
PASI75 Non-Responder [1, 17]: 55/113 (48.7) %
PASI75 Responder [1, 17]: 58/113 (51.3) %
PASI75 Responder ([1]; Week 40, Observed Cases, Vehicle (Pivotal) group, listed as tapinarof): 51.3%
PASI75 Non-Responder ([1]; Week 40 LOCF, Overall): 555/743 (74.7) %
PASI75 Responder ([1]; Week 40 LOCF, Overall): 188/743 (25.3) %
Subjects with reduction of ≥90% from Baseline in PASI (PASI90) ([1]; Week 40 LOCF, Overall): 14.4%
mean (SD) PASI score ([1]; Week 40 LOCF, Overall): 2.97 (3.622)
Subjects with reduction of ≥90% from Baseline in PASI (PASI90) ([1]; Week 40 OC, Overall): 17.8%
mean (SD) PASI score ([1]; Week 40 OC, Overall): 2.36 (2.781)
TEAE incidence: contact dermatitis ([2]; final analysis): 5.5%
TEAE incidence: folliculitis ([2]; final analysis): 22.7%
TEAE incidence: upper respiratory tract infection ([2]; final analysis): 4.7%
discontinuation rate due to contact dermatitis ([2]; final analysis): 1.4%
discontinuation rate due to folliculitis ([2]; final analysis): 1.2%
Study discontinuation due to AESI: Dermatitis contact ([2]; final analysis, Overall): 11 (1.4) n (%)
Study discontinuation due to AESI: Folliculitis ([2]; final analysis, Overall): 9 (1.2) n (%)
Study discontinuation due to AESI: Headache ([2]; final analysis, Overall): 0 n (%)
Study discontinuation due to TEAEs ([2]; final analysis, Overall): 41 (5.4) n (%)
Treatment-emergent AESI: Dermatitis contact ([2]; final analysis, Overall): 45 (5.9) n (%)
Treatment-emergent AESI: Folliculitis ([2]; final analysis, Overall): 183 (24.0) n (%)
Treatment-emergent AESI: Headache ([2]; final analysis, Overall): 15 (2.0) n (%)
Study discontinuation due to AESI: Dermatitis contact [2, 18]: 7 (1.4) n (%)
Study discontinuation due to AESI: Folliculitis [2, 18]: 6 (1.2) n (%)
Study discontinuation due to AESI: Headache [2, 18]: 0 n (%)
Study discontinuation due to TEAEs [2, 18]: 26 (5.1) n (%)
Treatment-emergent AESI: Dermatitis contact [2, 18]: 24 (4.7) n (%)
Treatment-emergent AESI: Folliculitis [2, 18]: 124 (24.4) n (%)
Treatment-emergent AESI: Headache [2, 18]: 10 (2.0) n (%)
Study discontinuation due to AESI: Dermatitis contact [2, 19]: 4 (1.6) n (%)
Study discontinuation due to AESI: Folliculitis [2, 19]: 3 (1.2) n (%)
Study discontinuation due to AESI: Headache [2, 19]: 0 n (%)
Study discontinuation due to TEAEs [2, 19]: 15 (5.9) n (%)
Treatment-emergent AESI: Dermatitis contact [2, 19]: 21 (8.2) n (%)
Treatment-emergent AESI: Folliculitis [2, 19]: 59 (23.1) n (%)
Treatment-emergent AESI: Headache [2, 19]: 5 (2.0) n (%)
study discontinuation rate due to contact dermatitis ([2]; interim): 1.4%
study discontinuation rate due to folliculitis ([2]; interim): 1.2%
Premature discontinuation due to AEs ([2]; interim, Overall): 5.8%
Premature discontinuation due to AEs ([2]; interim, Tapinarof (Pivotal) group): 5.7%
Premature discontinuation due to AEs ([2]; interim, Vehicle (Pivotal) group): 5.9%
time efficacy was maintained after treatment cessation (plaque psoriasis): 4 weeks
reported TEAEs ([3]; 1% BID arm): 70%
proportion subjects with ≥75% improvement in EASI ([3]; 1% BID): 60%
Treatment success for IGA (clear or almost clear with minimum 2-point improvement) ([3]; 1% QD arm, Week 8): 49%
proportion subjects with ≥75% improvement in EASI ([3]; 1% QD arm, Week 8): 57%
Treatment success for IGA (clear or almost clear with minimum 2-point improvement) ([3]; 1% QD arm, Week 12): 46%
proportion subjects with ≥75% improvement in EASI ([3]; 1% QD arm, Week 12): 57%
reported TEAEs ([3]; 1% QD arm): 54%
proportion subjects with ≥75% improvement in EASI ([3]; 1% QD): 51%
metabolic turnover [4]: no metabolic turnover
